In assay [1] the target is T1, Serine/threonine-protein kinase ULK1 (Homo sapiens) (UniProt O75385).
T1 sequence (whole entry): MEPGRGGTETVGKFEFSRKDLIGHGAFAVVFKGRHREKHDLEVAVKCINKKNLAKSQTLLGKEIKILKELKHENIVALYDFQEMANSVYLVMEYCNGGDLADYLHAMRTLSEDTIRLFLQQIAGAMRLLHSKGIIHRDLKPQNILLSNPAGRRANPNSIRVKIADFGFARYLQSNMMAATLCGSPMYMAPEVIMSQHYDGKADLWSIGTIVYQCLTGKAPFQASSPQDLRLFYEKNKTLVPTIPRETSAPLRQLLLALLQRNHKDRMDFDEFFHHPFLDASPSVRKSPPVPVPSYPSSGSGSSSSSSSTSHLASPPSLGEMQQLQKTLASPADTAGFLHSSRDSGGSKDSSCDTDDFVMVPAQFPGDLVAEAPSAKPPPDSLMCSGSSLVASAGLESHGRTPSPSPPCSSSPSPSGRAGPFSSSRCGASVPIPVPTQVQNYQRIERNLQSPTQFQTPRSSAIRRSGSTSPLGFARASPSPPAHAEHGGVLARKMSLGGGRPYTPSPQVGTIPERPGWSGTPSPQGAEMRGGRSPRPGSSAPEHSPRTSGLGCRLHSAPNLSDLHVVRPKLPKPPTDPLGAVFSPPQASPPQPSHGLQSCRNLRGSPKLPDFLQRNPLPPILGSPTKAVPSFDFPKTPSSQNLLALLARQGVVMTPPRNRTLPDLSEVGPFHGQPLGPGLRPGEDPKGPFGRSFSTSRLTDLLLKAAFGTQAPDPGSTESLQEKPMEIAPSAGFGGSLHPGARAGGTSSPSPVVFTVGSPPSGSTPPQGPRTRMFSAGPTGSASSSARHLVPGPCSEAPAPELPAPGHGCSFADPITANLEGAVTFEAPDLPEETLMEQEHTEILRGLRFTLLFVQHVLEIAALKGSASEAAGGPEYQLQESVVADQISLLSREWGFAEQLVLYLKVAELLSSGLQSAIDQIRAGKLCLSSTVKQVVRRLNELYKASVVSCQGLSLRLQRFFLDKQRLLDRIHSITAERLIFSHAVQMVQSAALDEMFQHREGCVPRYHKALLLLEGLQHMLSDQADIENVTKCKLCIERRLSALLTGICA
Briefly: Selectivity interaction (LanthaScreen Eu Kinase Binding Assay) EUB0001632a ULK1. The following applies: at 10 µM.

Assay [2] deals with T2, Serine/threonine-protein kinase Sgk1 (Homo sapiens) (UniProt O00141).
T2 sequence (whole entry): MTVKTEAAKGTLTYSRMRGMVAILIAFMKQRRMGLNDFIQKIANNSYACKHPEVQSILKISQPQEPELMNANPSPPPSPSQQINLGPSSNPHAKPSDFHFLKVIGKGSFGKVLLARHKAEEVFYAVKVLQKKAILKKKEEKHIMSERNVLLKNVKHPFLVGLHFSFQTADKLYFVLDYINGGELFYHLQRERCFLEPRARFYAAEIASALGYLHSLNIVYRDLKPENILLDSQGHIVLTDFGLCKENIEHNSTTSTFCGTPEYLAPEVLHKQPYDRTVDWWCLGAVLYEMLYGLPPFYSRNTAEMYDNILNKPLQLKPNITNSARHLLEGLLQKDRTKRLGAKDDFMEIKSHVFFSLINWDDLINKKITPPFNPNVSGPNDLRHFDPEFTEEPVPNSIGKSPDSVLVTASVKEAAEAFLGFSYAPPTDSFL
Description: Selectivity interaction (KinomeScan (DiscoverX)) EUB0000666a SGK1. The conditions noted are these: at 10 µM.

The target of assay [3] is T3, Serine/threonine-protein kinase Sgk3 (Homo sapiens) (UniProt Q96BR1).
T3 sequence (whole entry): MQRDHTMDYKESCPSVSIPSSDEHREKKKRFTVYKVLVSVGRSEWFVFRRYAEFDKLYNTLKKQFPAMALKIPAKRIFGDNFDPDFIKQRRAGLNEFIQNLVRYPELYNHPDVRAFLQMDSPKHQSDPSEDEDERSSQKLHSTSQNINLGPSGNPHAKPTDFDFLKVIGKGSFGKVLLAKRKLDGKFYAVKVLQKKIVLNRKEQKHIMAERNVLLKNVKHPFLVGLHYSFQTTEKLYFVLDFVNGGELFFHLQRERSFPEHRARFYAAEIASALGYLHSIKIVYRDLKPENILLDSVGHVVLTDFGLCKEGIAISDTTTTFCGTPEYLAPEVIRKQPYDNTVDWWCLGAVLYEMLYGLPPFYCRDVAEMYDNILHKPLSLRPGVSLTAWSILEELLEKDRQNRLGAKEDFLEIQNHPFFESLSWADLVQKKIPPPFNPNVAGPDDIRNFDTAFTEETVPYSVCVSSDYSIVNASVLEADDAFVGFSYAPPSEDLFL
The following applies: at 10 µM.

For assay [4], the target named is T4, Serine/threonine-protein kinase ULK2 (Homo sapiens) (UniProt Q8IYT8).
T4 sequence (whole entry): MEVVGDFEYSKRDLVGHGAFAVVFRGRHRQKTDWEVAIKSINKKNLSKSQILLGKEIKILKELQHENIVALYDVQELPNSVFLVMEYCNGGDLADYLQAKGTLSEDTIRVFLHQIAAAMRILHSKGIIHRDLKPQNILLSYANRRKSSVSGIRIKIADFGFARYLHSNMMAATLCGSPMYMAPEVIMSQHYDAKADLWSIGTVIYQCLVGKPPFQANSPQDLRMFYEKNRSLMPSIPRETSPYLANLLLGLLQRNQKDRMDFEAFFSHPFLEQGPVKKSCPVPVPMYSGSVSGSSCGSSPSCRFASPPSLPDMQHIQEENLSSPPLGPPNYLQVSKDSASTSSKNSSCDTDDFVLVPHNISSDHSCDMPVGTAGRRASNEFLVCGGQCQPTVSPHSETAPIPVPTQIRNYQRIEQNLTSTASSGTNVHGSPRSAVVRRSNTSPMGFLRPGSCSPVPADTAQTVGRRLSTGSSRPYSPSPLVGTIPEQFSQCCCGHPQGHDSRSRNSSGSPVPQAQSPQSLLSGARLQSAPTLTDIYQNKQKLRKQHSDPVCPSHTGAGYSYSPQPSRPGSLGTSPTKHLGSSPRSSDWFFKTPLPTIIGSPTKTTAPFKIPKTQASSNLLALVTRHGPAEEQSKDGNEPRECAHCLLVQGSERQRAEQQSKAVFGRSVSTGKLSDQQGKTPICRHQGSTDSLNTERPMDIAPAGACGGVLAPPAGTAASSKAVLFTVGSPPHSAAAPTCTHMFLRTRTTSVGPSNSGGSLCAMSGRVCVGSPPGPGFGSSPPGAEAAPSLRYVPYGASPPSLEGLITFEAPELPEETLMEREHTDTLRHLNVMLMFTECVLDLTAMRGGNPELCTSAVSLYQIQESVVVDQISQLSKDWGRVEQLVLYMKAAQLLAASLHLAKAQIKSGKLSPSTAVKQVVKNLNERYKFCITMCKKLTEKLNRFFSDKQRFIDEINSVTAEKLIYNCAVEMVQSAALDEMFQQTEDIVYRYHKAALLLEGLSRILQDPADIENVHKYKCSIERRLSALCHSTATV
Description: Selectivity interaction (KinomeScan (DiscoverX)) EUB0001049a ULK2. The conditions noted are these: at 1 µM.

The source of these data is ChEMBL document CHEMBL5465560, “Selectivity Literature for EUbOPEN Chemogenomic Library” (2024).

SMILES strings stand for the structures.

Take `Cn1cc(-n2cnc3c(NCc4nc5cc(Cl)c(Cl)cc5[nH]4)nc(N4CCOCC4)nc32)cn1`: the % of inhibition in assay [1] was -7.27%. Turning to `O=C(NOC[C@H](O)CO)c1ccc(F)c(F)c1Nc1ccc(I)cc1F`, in assay [2], the % of control amounted to 100%. Compound `Cc1cc([C@@H](C)Nc2ccccc2C(=O)O)c2nc(N3CCOCC3)cc(=O)n2c1` [AZD-6482] registered a % of control in assay [3] of 86%. `COc1cc(Nc2nc(C)cc(-c3cnn4nc(OC)ccc34)n2)cc(C(F)(F)F)c1` displayed a % of control in assay [4] of 92%.
